According to US9765069B2, “Antimicrobial compounds” (OXFORD UNIVERSITY INNOVATION LIMITED, priority 2012, dated 2017):
In brackets after ≈: the same amount, converted by molar mass. Read-outs that look alike come from different tables or passages of the source.

How the values were obtained:
all strains = experiment: MIC determination (bacteria), whole strain panel of Table 2; type: cell-based
Description: (§1) MIC determination (bacteria); MICs were determined based on Clinical and Laboratory Standards Institute (CLSI) methodology (Methods for dilution antimicrobial susceptibility tests for bacteria that grow aerobically; Approved Standard—seventh edition. 2006, M7-A7, CLSI, Wayne Pa.) by a 2-fold broth dilution technique in Mueller Hinton (pH7.4 Biorad). For S. pneumoniae, the medium was supplemented with 2.5% laked horse blood. For H. influenzae, the medium was haemophilus test medium (H.T.M.). Overnight cultures were diluted to obtain the final inoculum of 10^5 cfu/well. Incubation was 37° C. overnight in ambient air. The MIC was defined as the lowest concentration which inhibited all visual growth and expressed in μg/ml. For each bacterial species, all of the molecules were tested in the same experiment in order to give a head-to-head comparison.

E. Coli RNAP = E. Coli RNAP (Escherichia coli, UniProt P0A8T7+P0A8V2); experiment: In vitro activity against E. Coli RNAP; type: biochemical
Text: (§2) These properties can be determined according to techniques that are well known in the art.

H4 = experiment: MIC determination (bacteria), strain H4; type: cell-based, H. influenzae; details: Table 2 and its footnote f, haemophilus test medium; for MIC: Haemophilus influenzae
Description: as §1

H3 = experiment: MIC determination (bacteria), strain H3; type: cell-based, H. influenzae; details: Table 2, haemophilus test medium; for MIC: Haemophilus influenzae
Description: as §1

[1] = test system: human peripheral blood cells; experiment: in vitro toxicities human peripheral blood cells; type: cell-based
Text: as §2

E2 = experiment: MIC determination (bacteria), strain E2; type: cell-based, enterococcus; details: Table 2, 2-fold broth dilution; for MIC: Enterococcus
Description: as §1

S. aureus membrane = experiment: In vitro activity in depolarization of S. aureus membrane; type: cell-based; details: read-out: DEP (IC50)
Text: as §2

P1 = experiment: MIC determination (bacteria), strain P1; type: cell-based, S. pneumoniae; details: Table 2, 2-fold broth dilution; for MIC: Streptococcus pneumoniae
Description: as §1

E1 = experiment: MIC determination (bacteria), strain E1; type: cell-based, enterococcus; details: Table 2, 2-fold broth dilution
Description: as §1

P9 = experiment: MIC determination (bacteria), strain P9; type: cell-based, S. pneumoniae; details: Table 2, 2-fold broth dilution; for MIC: Streptococcus pneumoniae
Description: as §1

[2] = test system: mammalian_red blood cell membrane; experiment: In vitro mammalian red blood cell membrane lysis activity; type: cell-based; details: Active or inactive at 100 μM
Text: as §2

[3] = test system: human embryonic kidney 293 cells; experiment: in vitro toxicities against human embryonic kidney 293 cells; type: cell-based
Text: as §2

S26 = experiment: MIC determination (bacteria), strain S26; type: cell-based, S. aureus; details: Table 2, 2-fold broth dilution; for MIC: Staphylococcus aureus
Description: as §1

[4] = test system: S2 (S. aureus 2, MRSA in vivo); experiment: MIC determination (bacteria), strain S2; type: cell-based; details: Table 2, 2-fold broth dilution; for MIC: Staphylococcus aureus, MRSA
Description: as §1

S1 = experiment: MIC determination (bacteria), strain S1; type: cell-based, S. aureus; details: Table 2, 2-fold broth dilution; for MIC: Staphylococcus aureus
Description: as §1

S4 = experiment: MIC determination (bacteria), strain S4; type: cell-based, S. aureus; details: Table 2, 2-fold broth dilution; for MIC: Staphylococcus aureus
Description: as §1

[5] = aqueous solubility at pH 7.4; type: physicochemical; details: aqueous solubility at pH 7.4 (water with 2% DMSO)
Text: as §2

P9B = experiment: MIC determination (bacteria), strain P9B; type: cell-based, S. pneumoniae; details: Table 2, 2-fold broth dilution; for MIC: Streptococcus pneumoniae
Description: as §1

[6] = test system: Hek293 / PMBC versus S. aureus 2, MRSA in vivo; experiment: Selectivity index (LD50 Hek293/PMBC divided by MIC S. aureus 2); type: cell-based; details: lower LD50 of Hek293 and PMBC (converted to μg/mL) divided by MIC against S. aureus 2, MRSA in vivo
[7] = all strains (S1, S26, S4, S2, E1, E2, P1, P9, P9B, H3, H4), read-out: MIC for all strains
[8] = human embryonic kidney 293 cells

Sequence of E. Coli RNAP (P0A8V2 whole entry): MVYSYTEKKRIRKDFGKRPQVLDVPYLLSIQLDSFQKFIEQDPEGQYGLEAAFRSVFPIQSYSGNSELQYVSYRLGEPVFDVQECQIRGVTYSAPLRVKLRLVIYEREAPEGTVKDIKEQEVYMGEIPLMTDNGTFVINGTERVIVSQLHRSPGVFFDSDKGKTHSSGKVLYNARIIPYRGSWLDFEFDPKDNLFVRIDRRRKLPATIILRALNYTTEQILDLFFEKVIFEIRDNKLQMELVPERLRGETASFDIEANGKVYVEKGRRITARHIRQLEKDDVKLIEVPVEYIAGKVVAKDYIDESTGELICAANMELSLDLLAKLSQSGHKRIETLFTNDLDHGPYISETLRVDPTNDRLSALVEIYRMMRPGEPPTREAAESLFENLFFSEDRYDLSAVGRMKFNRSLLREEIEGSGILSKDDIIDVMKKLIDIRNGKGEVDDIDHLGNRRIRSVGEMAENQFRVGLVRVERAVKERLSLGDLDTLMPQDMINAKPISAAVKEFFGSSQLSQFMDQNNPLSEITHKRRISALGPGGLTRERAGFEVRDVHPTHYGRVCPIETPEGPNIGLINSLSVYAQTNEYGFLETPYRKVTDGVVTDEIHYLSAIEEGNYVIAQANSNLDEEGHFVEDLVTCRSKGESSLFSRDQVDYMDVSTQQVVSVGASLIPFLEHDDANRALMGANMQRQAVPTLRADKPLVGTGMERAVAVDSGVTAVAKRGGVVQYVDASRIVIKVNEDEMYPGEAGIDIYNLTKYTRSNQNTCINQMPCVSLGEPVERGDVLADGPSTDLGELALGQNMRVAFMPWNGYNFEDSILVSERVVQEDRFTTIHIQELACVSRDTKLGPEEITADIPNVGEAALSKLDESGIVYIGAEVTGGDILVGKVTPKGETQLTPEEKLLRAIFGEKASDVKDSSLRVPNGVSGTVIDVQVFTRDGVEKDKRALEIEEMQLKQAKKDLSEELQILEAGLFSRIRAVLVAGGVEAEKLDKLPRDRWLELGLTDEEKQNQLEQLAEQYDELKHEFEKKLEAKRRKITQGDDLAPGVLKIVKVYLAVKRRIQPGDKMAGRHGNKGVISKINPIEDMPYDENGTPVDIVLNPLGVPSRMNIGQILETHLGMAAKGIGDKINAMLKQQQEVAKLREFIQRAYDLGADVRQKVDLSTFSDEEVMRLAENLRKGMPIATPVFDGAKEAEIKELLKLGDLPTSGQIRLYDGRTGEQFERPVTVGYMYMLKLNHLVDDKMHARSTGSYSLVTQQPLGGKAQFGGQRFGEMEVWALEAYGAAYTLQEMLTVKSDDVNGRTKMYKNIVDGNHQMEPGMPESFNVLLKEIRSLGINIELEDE
Sequence of E. Coli RNAP (P0A8T7 whole entry): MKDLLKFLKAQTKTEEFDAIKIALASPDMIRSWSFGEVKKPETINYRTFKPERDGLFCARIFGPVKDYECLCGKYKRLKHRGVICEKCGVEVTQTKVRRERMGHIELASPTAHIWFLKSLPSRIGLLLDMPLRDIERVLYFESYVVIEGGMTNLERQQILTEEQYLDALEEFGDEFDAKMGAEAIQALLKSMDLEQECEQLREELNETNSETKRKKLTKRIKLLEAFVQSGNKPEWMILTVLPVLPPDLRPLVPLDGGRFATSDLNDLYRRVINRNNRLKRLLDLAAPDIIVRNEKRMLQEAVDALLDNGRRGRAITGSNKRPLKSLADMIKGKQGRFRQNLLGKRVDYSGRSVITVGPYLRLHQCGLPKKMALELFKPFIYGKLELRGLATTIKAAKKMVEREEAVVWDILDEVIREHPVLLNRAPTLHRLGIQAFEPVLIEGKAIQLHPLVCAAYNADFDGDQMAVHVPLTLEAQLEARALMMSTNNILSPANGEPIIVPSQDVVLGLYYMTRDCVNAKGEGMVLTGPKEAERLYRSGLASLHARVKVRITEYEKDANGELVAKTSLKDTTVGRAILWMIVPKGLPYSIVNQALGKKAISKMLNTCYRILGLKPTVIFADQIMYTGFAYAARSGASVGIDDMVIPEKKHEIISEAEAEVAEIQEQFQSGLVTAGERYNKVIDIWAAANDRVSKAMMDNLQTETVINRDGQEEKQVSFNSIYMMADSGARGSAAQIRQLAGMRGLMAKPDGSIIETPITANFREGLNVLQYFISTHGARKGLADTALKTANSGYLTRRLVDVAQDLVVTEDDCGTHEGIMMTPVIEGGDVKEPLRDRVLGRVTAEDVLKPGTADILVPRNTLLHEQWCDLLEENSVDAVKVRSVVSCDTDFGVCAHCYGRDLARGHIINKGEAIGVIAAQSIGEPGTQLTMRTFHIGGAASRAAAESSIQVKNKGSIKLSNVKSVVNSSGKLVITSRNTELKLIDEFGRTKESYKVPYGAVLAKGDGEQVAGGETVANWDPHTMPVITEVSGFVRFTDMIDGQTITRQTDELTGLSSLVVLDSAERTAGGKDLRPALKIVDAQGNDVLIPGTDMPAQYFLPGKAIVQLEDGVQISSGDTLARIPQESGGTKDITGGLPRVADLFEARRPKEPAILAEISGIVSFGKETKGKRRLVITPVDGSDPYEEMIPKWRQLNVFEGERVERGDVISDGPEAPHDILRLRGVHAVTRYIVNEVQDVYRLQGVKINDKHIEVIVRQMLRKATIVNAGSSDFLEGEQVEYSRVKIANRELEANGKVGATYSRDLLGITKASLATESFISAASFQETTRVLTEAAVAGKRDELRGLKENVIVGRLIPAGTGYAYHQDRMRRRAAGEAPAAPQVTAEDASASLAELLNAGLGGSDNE
Sequence of E. Coli RNAP (P0A7Z4 whole entry partner): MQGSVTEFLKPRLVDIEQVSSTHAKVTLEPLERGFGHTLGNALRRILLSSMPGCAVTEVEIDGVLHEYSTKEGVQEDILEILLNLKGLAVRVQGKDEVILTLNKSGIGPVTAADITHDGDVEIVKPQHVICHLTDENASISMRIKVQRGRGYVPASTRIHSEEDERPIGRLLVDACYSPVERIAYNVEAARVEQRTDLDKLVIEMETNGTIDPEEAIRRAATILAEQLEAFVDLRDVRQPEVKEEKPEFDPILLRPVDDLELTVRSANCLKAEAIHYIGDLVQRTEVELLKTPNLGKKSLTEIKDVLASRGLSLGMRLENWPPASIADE
Sequence of E. Coli RNAP (P0A800 whole entry partner): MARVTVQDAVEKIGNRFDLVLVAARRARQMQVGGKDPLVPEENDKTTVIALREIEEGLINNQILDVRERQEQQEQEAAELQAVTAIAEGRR

For `CC12CC3CC(C)(C1)CC(C/C(O)=C1\C(=O)[C@@H]4CCCC(=O)N4C1=O)(C3)C2` [29a], the MIC (all strains; read-out: MIC against the other strains) was > 32 µg/mL, the IC50 (E. Coli RNAP) was > 100 µM and the MIC (H4) was 16 µg/mL (≈ 43.1 µM).

With `CCCCCCC/C=C/C(=O)N1C(=O)/C(=C(\O)C[C@@H]2OC(C)(C)OC2=O)C(=O)C1CC(C)C` (stereo partly drawn) [30c] the MIC (all strains; [7]) was > 32 µg/mL and the IC50 (E. Coli RNAP) was 85 µM.

In the case of `CSCCC1C(=O)C(=C(O)CC23CC4CC(C)(CC(C)(C4)C2)C3)C(=O)N1C(C)=O` (stereo not drawn) [31e], the “MIC H3” value (H3) is reported as 32 µg/mL (≈ 76.3 µM), the “PMBC (LD50, μM)” value ([1]; human peripheral blood cells) is reported as 90.9 µM and the “MIC E2” value (E2) is reported as 4 µg/mL (≈ 9.53 µM). For the same compound, the IC50 (S. aureus membrane) was 91.4 µM, the “MIC P1” value (P1) was 2 µg/mL (≈ 4.77 µM) and the “MIC E1” value (E1) was 4 µg/mL (≈ 9.53 µM). The “MIC P9” value (P9) was 2 µg/mL (≈ 4.77 µM), the “RBC membrane lysis activity (active/inactive)” value [2] was “Active” and the IC50 (E. Coli RNAP) was 11 µM. The “Hek293 (LD50, μM)” value [3, 8] was 30.3 µM, the “MIC S26” value (S26) was 1 µg/mL (≈ 2.38 µM) and the “MIC S2” value [4] was 4 µg/mL (≈ 9.53 µM). The “MIC S1” value (S1) was 2 µg/mL (≈ 4.77 µM), the “MIC S4” value (S4) was 4 µg/mL (≈ 9.53 µM) and the “SOL” value [5] was >300 µM. The “MIC P9B” value (P9B) was 4 µg/mL (≈ 9.53 µM) and the “MIC H4” value (H4) was 4 µg/mL (≈ 9.53 µM).

With `CSCCC1C(=O)C(=C(O)CC23CC4CC(CC(C4)C2)C3)C(=O)N1C(=O)C1CCCCC1` (stereo not drawn) [31f] the “MIC H3” value (H3) was 32 µg/mL (≈ 69.6 µM), the “PMBC (LD50, μM)” value ([1]; human peripheral blood cells) was >90.9 µM and the “MIC E2” value (E2) was 1 µg/mL (≈ 2.18 µM). For the same compound, the IC50 (S. aureus membrane) was > 100 µM, the “MIC P1” value (P1) was 1 µg/mL (≈ 2.18 µM) and the “MIC E1” value (E1) was 0.5 µg/mL (≈ 1.09 µM). For the same compound, the “MIC P9” value (P9) was 0.5 µg/mL (≈ 1.09 µM), the “RBC membrane lysis activity (active/inactive)” value [2] was “Inactive^d” and the IC50 (E. Coli RNAP) was 40 µM. For the same compound, the “Hek293 (LD50, μM)” value [3, 8] was 90.9 µM, the “MIC S26” value (S26) was 1 µg/mL (≈ 2.18 µM) and the “MIC S2” value [4] was 2 µg/mL (≈ 4.35 µM). For the same compound, the “MIC S1” value (S1) was 0.5 µg/mL (≈ 1.09 µM), the “MIC S4” value (S4) was 0.5 µg/mL (≈ 1.09 µM) and the “SOL” value [5] was >300 µM. For the same compound, the “MIC P9B” value (P9B) was 2 µg/mL (≈ 4.35 µM) and the “MIC H4” value (H4) was 2 µg/mL (≈ 4.35 µM).

For `CSCCC1C(=O)/C(=C(/O)CC2CC3CCC2C3)C(=O)N1C(=O)CC(C)CC(C)(C)C` (stereo not drawn) [31g], the MIC (H3) was 32 µg/mL (≈ 71.2 µM), the “PMBC (LD50, μM)” value ([1]; human) was 30.3 µM and the MIC (E2) was 0.25 µg/mL (≈ 0.556 µM). The IC50 (S. aureus membrane; Staphylococcus aureus) was > 100 µM, the MIC (P1) was 0.5 µg/mL (≈ 1.11 µM) and the MIC (P9) was 0.25 µg/mL (≈ 0.556 µM). For the same compound, the “RBC membrane lysis activity (active/inactive)” value [2] was “Active”, the “SI (Selectivity index)” value [6] was <9.1 and the IC50 (E. Coli RNAP) was > 100 µM. The “Hek293 (LD50, μM)” value ([3]; human) was 10.1 µM, the MIC (S26) was 0.5 µg/mL (≈ 1.11 µM) and the MIC [4] was 0.5 µg/mL (≈ 1.11 µM). For the same compound, the MIC (S1) was 0.12 µg/mL (≈ 0.267 µM), the MIC (S4) was 0.5 µg/mL (≈ 1.11 µM) and the “SOL” value [5] was >300 µM. For the same compound, the MIC (P9B) was 2 µg/mL (≈ 4.45 µM) and the MIC (H4) was 2 µg/mL (≈ 4.45 µM).

With `CSCCC1C(=O)/C(=C(/O)C[C@@H]2OC(C)(C)OC2=O)C(=O)N1C(=O)CC(C)CC(C)(C)C` (stereo partly drawn) [31h] the MIC (all strains; [7]) was > 32 µg/mL.

For `CSCCC1C(=O)/C(=C(/O)CCCOc2ccc(Cl)cc2C)C(=O)N1C(=O)CC(C)CC(C)(C)C` (stereo not drawn) [31j], the MIC (H3) was > 64 µg/mL, the “PMBC (LD50, μM)” value ([1]; human) was 30.3 µM and the MIC (E2) was 0.25 µg/mL (≈ 0.477 µM). The IC50 (S. aureus membrane; Staphylococcus aureus) was > 100 µM, the MIC (P1) was 0.5 µg/mL (≈ 0.954 µM) and the MIC (E1; Enterococcus) was 1 µg/mL (≈ 1.91 µM). The MIC (P9) was 0.25 µg/mL (≈ 0.477 µM), the “RBC membrane lysis activity (active/inactive)” value [2] was “Active” and the “SI (Selectivity index)” value [6] was <11. The IC50 (E. Coli RNAP) was 91 µM, the “Hek293 (LD50, μM)” value ([3]; human) was 10.1 µM and the MIC (S26) was 1 µg/mL (≈ 1.91 µM). It also gave an MIC [4] of 0.5 µg/mL (≈ 0.954 µM), an MIC (S1) of 0.5 µg/mL (≈ 0.954 µM) and an MIC (S4) of 1 µg/mL (≈ 1.91 µM). The “SOL” value [5] was >300 µM, the MIC (P9B) was 8 µg/mL (≈ 15.3 µM) and the MIC (H4) was 8 µg/mL (≈ 15.3 µM).
